# Marks after values point to notes of the source that are not given here.
# Experiments:
# IL-22 mRNA expression = test: Ex-vivo human skin model, IL-22 mRNA expression; assay type: cell-based; details: Th17 cytokine cocktail 24 h, RT-PCR
# Procedure: (§1) Fresh ex vivo human skin from healthy bariatric patients, that underwent abdominoplasty skin removal, was de-fatted and dermatomed at 750 μm. Dermatomed skin was incubated twice for 5-10 minutes at room temperature in PBS containing a antibiotic/antimycotic solution: Fungizone (Invitrogen #15290018), PSG (Fisher #BW17718R) and Gentamicin (Invitrogen #15750060). Skin was treated aseptically from this point on. Individual skin samples were obtained by 10 mm punch biopsy and placed in a 0.4 μm PCF membrane transwell (Millicell #PIHP01250) containing 30 μl of a 64% bovine collagen solution. After a 30 minute incubation at 37° C., which allows the collagen solution time to set, skin samples on transwells were transferred to 6-well plates (1 sample per well) and the lower chamber filled with 1 ml complete media (Cornification Media)+hydrocortisone (final concentration of 0.4 μg/ml) with or without test compounds at 10 μM (day −3) and allowed to rest overnight (16-18 h) at 37° C. Next, media was aspirated from the lower chamber, replaced with 1 ml complete media without hydrocortisone and incubated at 37° C. for 1 h. This constituted a ‘wash’ step. Following the hydrocortisone washout, media was again aspirated from the lower chamber and replaced with 1.0 ml complete media without hydrocortisone with or without GSK compounds at 10 μM (day −2). Cultures were incubated at 37° C. in a humidified chamber and media was refreshed one more day (day-1). The following day (day-0), cultures were stimulated for 24 h with a freshly made Th17 cytokine cocktail (CD3, 1 μg/ml, CD28, 2 μg/ml, IL-1b, 10 ng/ml, IL-6, 5 ng/ml, TGFb, 1 ng/ml, IL-21, 10 ng/ml, anti-IL-4, 1 μg/ml and anti-INFg, 1 μg/ml) with or without test compounds at 10 μM. Upon harvest (day +1), skin samples were minced with a razor blade and transferred to 1.5 ml RNAse-free tubes with 1 ml RNAlater solution until later analysis by RT-PCR (stored at −80 C).
# (§2) Total RNA was isolated from about 30-40 mg of tissue using Qiagen's (Cat #74106) Mini RNA Isolation kit. Briefly, tissue was homogenized in the Precellys-24 machine using 300 μL of RLT buffer supplemented with 1% 2-Beta-Mercapto-Ethanol at 6300 rpm for 30 seconds for 6 cycles with a 2-minute ice break. 600 μL of water containing Proteinase K was added to the homogenate and digested at 55 C for 15 minutes. Digested tissue was spun down for 3 minutes at 10,000×g and the supernantant was used for RNA isolation using Qiagen's RNeasy mini columns according to manufacturer's protocol. 100 ng of RNA was used as template in a 20 μL PCR volume using Applied Biosciences RNA-to-CT 1 Step kit (AB Catalog #4392938) as well as the specific TaqMan probe for each gene to be quantified. Life Technologies FAM labeled Probes Catalog Numbers are as follows: ACTb=Hs01060665_g1, IL-17A=Hs00174383_m1, IL-17F=Hs00369400_m1, IL-22=Hs01574154_m1. All probes used (except for ACTb) expand an Exon. Applied Biosciences' Master Mix has a ROX dye internal control. OneStepPlus PCR machine was used for both the RT step and the 40 amplification cycles. RNA levels of gene of interest's relative expression were calculated using the Delta Delta CT formula.
# (§3) First delta: Normalized to ACTb gene expression
# (§4) Second delta: Normalized to sample 13 (Day 0+DMSO) for the gene of interest.
# IL-17A mRNA expression = test: Ex-vivo human skin model, IL-17A mRNA expression; assay type: cell-based; details: Th17 cytokine cocktail 24 h, RT-PCR
# Procedure: as §1, §2, §3, §4
# [1] = biological target: T1, Human RORγ Ligand Binding Domain (RORγ-LBD) (Homo sapiens, UniProt P51449); test: Dual Fluorescence Energy Transfer (FRET) assay: co-activator SRC1(2) peptide interaction with RORγ-LBD; assay type: biochemical; details: RORγ-LBD / SRC1(2) peptide, read-out: mean pIC50 (converted)
# T1 construct: His6 with thrombin site) (N); made in house; host or cells: E. coli BL21(DE3), modified pET21a vector
# T1 sequence (P51449 263-518): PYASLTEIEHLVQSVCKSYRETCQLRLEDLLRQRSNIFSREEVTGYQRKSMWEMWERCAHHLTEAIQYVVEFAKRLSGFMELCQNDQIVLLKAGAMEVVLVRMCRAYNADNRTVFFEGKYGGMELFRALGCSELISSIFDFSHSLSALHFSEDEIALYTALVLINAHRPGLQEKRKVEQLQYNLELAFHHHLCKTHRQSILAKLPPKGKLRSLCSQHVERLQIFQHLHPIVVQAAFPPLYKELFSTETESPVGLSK
# Excerpt: Dual Fluorescence Energy Transfer (FRET) Assay
# This assay is based on the knowledge that nuclear receptors interact with cofactors (transcription factors) in a ligand dependent manner. RORγ is a typical nuclear receptor in that it has an AF2 domain in the ligand binding domain (LBD) which interacts with co-activators.
# This assay measures ligand-mediated interaction of the co-activator peptide with the purified bacterial-expressed RORγ ligand binding domain (RORγ-LBD) to indirectly assess ligand binding. RORγ has a basal level of interaction with the co-activator SRC1(2) in the absence of ligand, thus, it is possible to find ligands that inhibit or enhance the RORγ/SRC1(2) interaction.
# Human RORγ Ligand Binding Domain (RORγ-LBD) was expressed in E. coli strain BL21(DE3) as an amino-terminal polyhistidine tagged fusion protein. DNA encoding this recombinant protein was sub-cloned into a modified pET21a expression vector (Novagen).
# Approximately 50 g E. coli cell pellet was resuspended in 300 mL of lysis buffer (30 mM imidazole pH 7.0 and 150 mM NaCl). Cells were lysed by sonication and cell debris was removed by centrifugation for 30 minutes at 20,000 g at 4° C. […] The clarified lysate was loaded onto a column (XK-26) packed with ProBond Nickel Chelating resin (InVitrogen), pre-equilibrated with 30 mM imidazole pH 7.0 and 150 mM NaCl. After washing to baseline absorbance with the equilibration buffer, the column was developed with a gradient from 30 to 500 mM imidazole pH 7.0. Column fractions containing the RORγ-LBD protein were pooled and concentrated to a volume of 5 mLs. The concentrated protein was loaded onto a Superdex 200 column pre-equilibrated with 20 mM Tris-Cl pH 7.2 and 200 mM NaCl. The fractions containing the desired RORγ-LBD protein were pooled together.
# Purified RORγ-LBD was buffer exchanged by exhaustive dialysis [3 changes of at least 20 volumes (>8000×)] against PBS [100 mM NaPhosphate, pH 8 and 150 mM NaCl]. […] The modified RORγ-LBD was dialyzed against 2 buffer changes—TBS pH 8.0 containing 5 mM DTT, 2 mM EDTA and 2% sucrose—each at least 20 times of the volume. The modified protein was distributed into aliquots, frozen on dry ice and stored at −80° C. The biotinylated RORγ-LBD was subjected to mass spectrometric analysis to reveal the extent of modification by the biotinylation reagent.
# Biotinylated SRC1(2) solution was prepared by adding an appropriate amount of biotinylated SRC1(2) from the 100 uM stock solution to a buffer containing 10 mM of freshly added DTT from solid to give a final concentration of 40 nM. An appropriate amount of Europium labeled Streptavidin was then added to the biotinylated SRC1(2) solution in a tube to give a final concentration of 10 nM. The tube was inverted gently and incubated for 15 minutes at room temperature. Twenty-fold excess biotin from the 10 mM stock solution was added and the tube was inverted gently and incubated for 10 minutes at room temperature.
# Biotinylated RORγ-LBD solution was prepared by adding an appropriate amount of biotinylated RORγ-LBD from the stock solution to a buffer containing 10 mM of freshly added DTT from solid to give a final concentration of 40 nM. An appropriate amount of APC labeled Streptavidin was then added to the biotinylated RORγ-LBD solution in a tube to give a final concentration of 20 nM. The tube was inverted gently and incubated for 15 minutes at room temperature. Twenty-fold excess biotin from the 10 mM stock solution was then added and the tube was inverted gently and incubated for 10 minutes at room temperature.
# The reaction mixtures were incubated for 5 minutes. […] The plates were incubated for 1 hour and then read on ViewLux in Lance mode for EU/APC.
# IL-17F mRNA expression = test: Ex-vivo human skin model, IL-17F mRNA expression; assay type: cell-based; details: Th17 cytokine cocktail 24 h, RT-PCR
# Procedure: as §1, §2, §3, §4
# [2] = test system: IL-17A secreted from antiCD3/CD28 stimulated Peripheral Blood Mononuclear cells (PBMC); test: Peripheral Blood Mononucleocyte Cell Assay (PBMC Assay - IL-17); assay type: cell-based; details: Homo sapiens, 48 h, IL-17A release, read-out: mean pIC50 (converted)
# Procedure: Peripheral Blood Mononucleocvte Cell Assay (PBMC Assay—IL-17) […]
# This assay is designed to measure levels of IL-17A secreted from antiCD3/CD28 stimulated frozen Peripheral Blood Mononuclear cells (PBMC) isolated from human blood with the aim of identifying inhibitors of IL-17A release.
# 2. The compounds for screening are dispensed into a master plate at 10 mM top concentration which are serially diluted 1:3 across 11 points in DMSO, then 500 nL is transferred into a 384-well flat-bottomed Greiner plate to which 50 uL of cell suspension is added: for the single shot screening the highest concentration of compound is 10^−5M; for 11 point full curve dose response studies the highest concentration is 10^−4 M.
# As a low control, DMSO (as supplied, for example, by VWR) (final concentration 1%) in column 6 (16 points).
# As a high control, 5-(4-fluorophenyl)-2-ureidothiophene-3-carboxamide (obtainable from, for example, Sigma) at a final concentration of 10^−4 M in DMSO should be used in column 18 (16 points).
# 9. Make the cell suspension at the concentration 8×10^5 cells/mL to give a final number of 40,000 cells/well.
# 1. Add well mixed CD3/CD28 Dynabeads (as supplied, for example, by Dynal) to achieve ratio bead:cell=2:1 (ie. a dilution of 1 in 20). Mix thoroughly.
# 2. Dispense the suspension into the 384 Assay Plates using Multidrop (50 uL per well). If the volume of cell suspension is large, mix the suspension after dispensing into every other plate.
# 3. Cover the plates with the lids and place them to the humidified incubator (37° C., 5% CO2) for 48 hours.
# 1. Transfer 10 uL of supernatants from assay plates to the MSD plates using Cybiwell. Ensure that all wells are covered with the solution. Tap the plate gently, if some of the wells are not covered with the supernatant.
# 3. Add 10 uL of MSD IL-17 detecting antibody using multidrop (1 ug/mL in D-PBS without Ca^2+ and Mg^2+ (supplied, for example, by Gibco)).
# 4. Cover the plates with adhesive foil and incubated with shaking for 3 hours at room temperature
# 7. Add 35 uL of MSD Read Buffer T×2 using multidrop.
# 8. Read plates on MSD MA6000 reader using the 384 well plate protocol as per manufacturer's instructions.
smiles,measurement,setting,value
"CCc1ccc(N(CC(C)C)S(=O)(=O)c2ccc(C(O)CN3CCOCC3)c(CO)c2)cc1 (racemic) [Example E123, N-(4-ethylphenyl)-4-(1-hydroxy-2-morpholinoethyl)-3-(hydroxymethyl)-N-isobutylbenzenesulfonamide]",Percentage of inhibition of IL-22 mRNA expression,"IL-22 mRNA expression; Skin Donor 1, compound 10 μM",63% *
same,Percentage of inhibition of IL-22 mRNA expression,"IL-22 mRNA expression; Skin Donor 2, compound 10 μM",57%
same,Percentage of inhibition of IL-22 mRNA expression,"IL-22 mRNA expression; Skin Donor 3, compound 10 μM",50%
same,Percentage of inhibition of IL-22 mRNA expression,"IL-22 mRNA expression; Skin Donor 4, compound 10 μM",68% *
same,Percentage of inhibition of IL-17A mRNA expression,"IL-17A mRNA expression; Skin Donor 1, compound 10 μM",76% *
same,Percentage of inhibition of IL-17A mRNA expression,"IL-17A mRNA expression; Skin Donor 2, compound 10 μM",92% *
same,Percentage of inhibition of IL-17A mRNA expression,"IL-17A mRNA expression; Skin Donor 3, compound 10 μM",73% *
same,Percentage of inhibition of IL-17A mRNA expression,"IL-17A mRNA expression; Skin Donor 4, compound 10 μM",91% *
same,IC50,[1],31.6 nM
same,Percentage of inhibition of IL-17F mRNA expression,"IL-17F mRNA expression; Skin Donor 1, compound 10 μM",55% *
same,Percentage of inhibition of IL-17F mRNA expression,"IL-17F mRNA expression; Skin Donor 2, compound 10 μM",84% *
same,Percentage of inhibition of IL-17F mRNA expression,"IL-17F mRNA expression; Skin Donor 3, compound 10 μM",65% *
same,Percentage of inhibition of IL-17F mRNA expression,"IL-17F mRNA expression; Skin Donor 4, compound 10 μM",87% *
Cc1ccc(N(CC(C)C)S(=O)(=O)c2ccc(OCC3CCOCC3)cc2)c(C)c1 [Example E12],IC50,[2],< 1000 nM
same,IC50,[1],≤ 15.8 nM
Cc1ccc(N(CC(C)C)S(=O)(=O)c2ccc(OCC3CCOCC3)c(Cl)c2)c(C)c1 [Example E20],IC50,[1],≤ 15.8 nM
"Cc1ccc(N(CC(C)C)S(=O)(=O)c2ccc(OCC3CCOCC3)c(C3CC3)c2)c(C)c1 [Example E21, 3-cyclopropyl-N-(2,4-dimethylphenyl)-N-isobutyl-4-((tetrahydro-2H-pyran-4-yl)methoxy)benzenesulfonamide]",IC50,[2],< 1000 nM
same,IC50,[1],≤ 15.8 nM
Cc1ccc(N(CC(C)C)S(=O)(=O)c2cc(F)c(OCC3CCOCC3)c(F)c2)c(C)c1 [Example E23],IC50,[1],≤ 15.8 nM
Cc1ccc(N(CC(C)C)S(=O)(=O)c2ccc(OCC3CCOCC3)c(C)c2)c(C)c1 [Example E24],IC50,[1],≤ 15.8 nM
Cc1ccc(N(CC(C)C)S(=O)(=O)c2ccc(OCC3CCOCC3)cc2C)c(C)c1 [Example E25],IC50,[1],≤ 15.8 nM
"Cc1ccc(N(CC(C)C)S(=O)(=O)c2ccc(OCC3CCOCC3)cc2O)c(C)c1 [Example E26, N-(2,4-dimethylphenyl)-2-hydroxy-N-isobutyl-4-((tetrahydro-2H-pyran-4-yl)methoxy)benzenesulfonamide]",IC50,[1],≤ 15.8 nM

# — US9428452B2, “Compounds” (Glaxo Group Limited, priority 2012, dated 2016)
